The results in this text go back to patent US5232923A, “Catechol derivatives and pharmaceutical preparations containing same” (Mitsui Toatsu Chemicals, Incorporated, priority 1988, dated 1993).

The test system of assay [1] is production and secretion of NGF in mouse brain astroglial cells. Briefly: Promoting activity for the production and secretion of NGF in mouse brain astroglial cells (ELISA of medium after 24 h). In kind it is cell-based. To be noted: for NGF Concentration / NGF Astroglial Cell Concentration: 24 hours; for NGF Astroglial Cell Concentration: control 31.8. The method, then:
Promoting activity for the production and secretion of NGF in mouse brain astroglial cells
The experiment was performed by inducing astroglial cells from the mouse forebrain to a culture system according to the procedures of S. Furukawa et al. which is described in Biochem. Biophys. Res. Commun., 136, 57-63 (1986).
Forebrains of 8-days old mice were dissected out and cut into small pieces. The pieces were washed with calcium- and magnesium-free phosphate-bufferedsaline (hereinafter abbreviated as PBS), treated with 0.25% trypsin containing PBS at 37° C. for 30 minutes and triturated with a Pasteur pipet to give a suspension. Cells and cell clumps were recovered by centrifugation at 200 xg for 5 minutes. They were cultured in Dulbecco modified Eagle's medium (a product of Gibco Co. hereinafter abbreviated as DMEM) containing 10% fetal calf serum, 50 μ units/ml of penicillin, and 50 μg/ml of streptomycin, for 10 to 14 days with medium changes every 3 days. After completing confluency, the cells were dissociated by trypsin treatment and recultured in new culture flasks. This procedure was repeated further twice and more. The culture became a uniform cell cluster. The cell cluster for use in this invention can be stained not less than 97% in accordance with the PAP staining method (peroxidase/[…] staining method) using anti-human glial fibrillar acidic protein (GFAP) rabbit antiserum. The cells will hereinafter be referred to as astroglial cells.
Astroglial cells were innoculated in 24-well plates having a well surface area of 2.1 cm^2 (a product of Falcon Co.) at a cell density of about 3×10^4 cells/well and cultured for 3 days in DMEM medium supplemented with 10% of fetal calf serum. After completing confluency about ([…]), the medium was changed to DMEM medium (0.5 ml/well) supplemented with 0.5% of bovine serum albumin (fraction V) and cultured for 3 days. The culture was further continued with medium changes every 3 days. After cells were practically synchronized in the quiscent stage, the medium was changed to 0.5 ml of the same medium and containing a prescribed concentration of test sample as illustrated in the Tables. NGF in the medium after cultivating for 24 hours was determined by the ELISA as mentioned above. Data are expressed as fold increase in NGF content over that in the absence of the test sample. The lower detection limit of the ELISA is 0.25 pg/ml and the NGF content of control medium was normally 1-10 pg/0.5 ml/well. Data are presented as the mean of four determinations. The results are illustrated in Tables 1-5.
(In general: An ELISA detects its analyte on a solid surface through an enzyme-linked reagent.)

For assay [2], the system named is production and secretion of NGF in mouse L-M cells. Description: Promoting activity for the production and secretion of NGF in mouse L-M cells (ELISA of medium after 24 h). In kind it is cell-based. To be noted: L-M cells; for fold induction at 200 µM / fold induction at 400 µM: Mus musculus, 24 h, fold increase over control (1.00); for fold induction at 200 µM / NGF Concentration: Table 2, sample concentration 0.2 mM; for fold induction at 200 µM: read-out: NGF Increase Ratio; for NGF Concentration / NGF L-M Cell Concentration: 24 hours; for NGF Concentration: mean of four determinations, control 0.34; for fold induction at 400 µM / NGF L-M Cell Concentration: Table 5, 0.4 mM; for fold induction at 400 µM: read-out: NGF L-M Cell Increase Ratio; for NGF L-M Cell Concentration: control 0.87. The method, then:
Promoting activity for the production and secretion of NGF in mouse L-M cells
The medium was cultured for 3 days at a temperature of 37° C. […] The sample of the derivative tested is contained in the medium at a prescribed concentration as illustrated in the Tables. […] Data are expressed as fold increase in NGF content of the medium over that cultivated in the absence of the derivative to be tested. […] Data are presented as the mean of four determinations. The results are illustrated in Tables 1-5.

[3] abbreviates: Mus musculus, 24 h, Table 4, sample concentration 0.4 mM, fold increase over control, read-out: NGF Increase Ratio.
Where [4] appears, read: Table 4, sample concentration 0.4 mM.
Where [5] appears, read: Mus musculus, 24 h, Table 5, 0.4 mM, fold increase over control (1.00), read-out: NGF Astroglial Cell Increase Ratio.

Read-outs that look alike come from different tables or passages of the source.

Regarding `CN(C)C(=O)CCc1ccc(O)c(O)c1` [Compound 72], the fold induction at 200 µM turned out to be 6.5 in assay [1] (Mus musculus, 24 h, Table 4, sample concentration 0.2 mM, fold increase over control, read-out: NGF Increase Ratio) and 5.91 in assay [2]. Further, the “NGF Concentration” value in assay [1] (Table 4, sample concentration 0.2 mM) came to 280.6 ng/well; in assay [2] it was 1.94 ng/well.
Turning to `CC(=O)Oc1ccc(CCC(N)=O)cc1OC(C)=O` [Compound 73], the fold induction at 400 µM in assay [1] (setting [3]) came out at 7.65. Moreover, the “NGF Concentration” value in assay [1] (setting [4]) is given as 330.6 ng/well. Further, in assay [2], the fold induction at 200 µM stood at 5.68 and the “NGF Concentration” value was found to be 2.01 ng/well.
On the same counts, the results for `CCNC(=O)CCc1ccc(OC(C)=O)c(OC(C)=O)c1` [Compound 74] are 6.53, 282.2 ng/well, 5.85 and 1.93 ng/well.
On the same counts, the results for `CCNC(=O)Cc1ccc(OC(C)=O)c(OC(C)=O)c1` [Compound 76] are 4.84, 209.1 ng/well, 5.47 and 1.88 ng/well.
For the compound `CCNC(=O)CCCc1ccc(OC(C)=O)c(OC(C)=O)c1` [Compound 79], the fold induction at 400 µM in assay [1] (setting [3]) is 4.57. The “NGF Concentration” value is 197.3 ng/well in assay [1] (setting [4]) and 1.82 ng/well in assay [2]. The fold induction at 200 µM in assay [2] stood at 5.35.
On the same counts, the results for `CC(=O)Oc1ccc(CCC(=O)N(C)C)cc1OC(C)=O` [Compound 81] are 6.33, 273.5 ng/well, 1.96 ng/well and 5.76.
Take `CCCCNC(=O)CCc1ccc(O)c(O)c1` [Compound 84, N-n-Butyl-3,4-dihydroxyphenylpropionamide]: in assay [1] (setting [5]), the fold induction at 400 µM was determined as 33.1. The “NGF Astroglial Cell Concentration” value in assay [1] (Table 5, 0.4 mM) is 539.5 ng/well. For the same compound, in assay [2], the fold induction at 400 µM worked out at 6.2 and the “NGF L-M Cell Concentration” value was 5.39 ng/well.
For `CCCCNC(=O)CCc1ccc(OC(C)=O)c(OC(C)=O)c1` [Compound 85, N-n-Butyl-3,4-diacetoxyphenylpropionamide], in assay [1] (setting [5]), the fold induction at 400 µM came to 33.6. For the same compound, the “NGF Astroglial Cell Concentration” value in assay [1] (Table 5, 0.4 mM) amounted to 547.7 ng/well. Besides, in assay [2], the fold induction at 400 µM was determined as 6.8 and the “NGF L-M Cell Concentration” value was 5.92 ng/well.
As to `CCCCCNC(=O)CCc1ccc(O)c(O)c1` [Compound 86, N-n-Pentyl-3,4-dihydroxyphenylpropionamide], the fold induction at 400 µM in assay [1] (setting [5]) is 30.3; in assay [2], 6.5. Besides, the “NGF Astroglial Cell Concentration” value in assay [1] (Table 5, 0.4 mM) was 493.9 ng/well. In addition, the “NGF L-M Cell Concentration” value in assay [2] is 5.66 ng/well.
With `CCCCCCNC(=O)CCc1ccc(O)c(O)c1` [Compound 87, N-n-Hexyl-3,4-dihydroxyphenylpropionamide], the fold induction at 400 µM in assay [1] (setting [5]) amounted to 12. Further, the “NGF Astroglial Cell Concentration” value in assay [1] (Table 5, 0.4 mM) came out at 195.6 ng/well. For the same compound, in assay [2], the fold induction at 400 µM worked out at 5.8 and the “NGF L-M Cell Concentration” value was 5.05 ng/well.
Turning to `CCCCCCNC(=O)CCc1ccc(OC(C)=O)c(OC(C)=O)c1` [Compound 88, N-n-Hexyl-3,4-diacetoxyphenylpropionamide], in assay [1] (setting [5]), the fold induction at 400 µM is 15.8. Moreover, in assay [1] (Table 5, 0.4 mM), the “NGF Astroglial Cell Concentration” value amounted to 257.5 ng/well. Besides, in assay [2], the fold induction at 400 µM was 6.2 and the “NGF L-M Cell Concentration” value worked out at 5.39 ng/well.
For the compound `CCCCCCCCCCCCNC(=O)CCc1ccc(O)c(O)c1` [Compound 89, N-Lauryl-3,4-dihydroxyphenylpropionamide], the fold induction at 400 µM in assay [1] (setting [5]) worked out at 5. For the same compound, the “NGF Astroglial Cell Concentration” value in assay [1] (Table 5, 0.4 mM) turned out to be 81.5 ng/well. Besides, in assay [2], the fold induction at 400 µM is 4.3 and the “NGF L-M Cell Concentration” value came out at 3.74 ng/well.
In the case of `CCCCN(C)C(=O)CCc1ccc(O)c(O)c1` [Compound 90, N-n-Butyl-N-methyl-3,4-dihydroxyphenylpropionamide], the fold induction at 400 µM in assay [1] (setting [5]) stood at 30. In addition, in assay [1] (Table 5, 0.4 mM), the “NGF Astroglial Cell Concentration” value amounted to 489.0 ng/well. In assay [2], the fold induction at 400 µM came out at 6.4 and the “NGF L-M Cell Concentration” value is on record as 5.57 ng/well.
Regarding `CCCCCCCCCCCCCCCCCCNC(=O)CCc1ccc(O)c(O)c1` [Compound 91, N-Stearyl-3,4-dihydroxyphenylpropionamide], in assay [1] (setting [5]), the fold induction at 400 µM came out at 5.2. Also, the “NGF Astroglial Cell Concentration” value in assay [1] (Table 5, 0.4 mM) turned out to be 84.8 ng/well. In addition, in assay [2], the fold induction at 400 µM stood at 4.1 and the “NGF L-M Cell Concentration” value turned out to be 3.57 ng/well.
The matching figures for `CCCCCCN(CCCCCC)C(=O)CCc1ccc(O)c(O)c1` [Compound 92, N,N-Di-n-hexyl-3,4-dihydroxyphenylpropionamide]: 8.8, 143.4 ng/well, 5 and 4.35 ng/well.
As to `O=C(CCc1ccc(O)c(O)c1)NC1CCCCC1` [Compound 93, N-Cyclohexyl-3,4-dihydroxyphenylpropionamide], the results for the fold induction at 400 µM in assay [1] (setting [5]) and in assay [2] were 9.9 and 6, respectively. Also, the “NGF Astroglial Cell Concentration” value in assay [1] (Table 5, 0.4 mM) was 161.4 ng/well. For the same compound, the “NGF L-M Cell Concentration” value in assay [2] was found to be 5.22 ng/well.
As to `CN(Cc1ccccc1)C(=O)CCc1ccc(O)c(O)c1` [Compound 94, N-Methyl N-benzyl-3,4-dihydroxyphenylpropionamide], the fold induction at 400 µM in assay [1] (setting [5]) turned out to be 5.2. Further, in assay [1] (Table 5, 0.4 mM), the “NGF Astroglial Cell Concentration” value is 84.8 ng/well. Moreover, in assay [2], the fold induction at 400 µM was determined as 5.1 and the “NGF L-M Cell Concentration” value was found to be 4.44 ng/well.
With `O=C(CCc1ccc(O)c(O)c1)Nc1ccccc1` [Compound 95, N-Phenyl-3,4-dihydroxyphenylpropionamide], the fold induction at 400 µM in assay [1] (setting [5]) was 11.2. Moreover, in assay [1] (Table 5, 0.4 mM), the “NGF Astroglial Cell Concentration” value was determined as 182.6 ng/well. Further, in assay [2], the fold induction at 400 µM amounted to 5.9 and the “NGF L-M Cell Concentration” value came out at 5.13 ng/well.
On the same counts, the results for `O=C(CCc1ccc(O)c(O)c1)NC12CC3CC(CC(C3)C1)C2` [Compound 96, N-Adamantyl-3,4-dihydroxyphenylpropionamide] are 18, 293.4 ng/well, 5.7 and 4.96 ng/well.
The matching figures for `O=C(CCc1ccc(O)c(O)c1)N1CCCCC1` [Compound 97, N-[3-(3,4-Dihydroxyphenyl)propionyl]piperidine]: 13.7, 435.7 ng/well, 6.2 and 5.39 ng/well.
`O=C(CCc1ccc(O)c(O)c1)N1CCCC1` [Compound 98, N-[3-(3,4-Dihydroxyphenyl)propionyl]pyrrolidine]: the fold induction at 400 µM in assay [1] (setting [5]) came out at 12.8. The “NGF Astroglial Cell Concentration” value in assay [1] (Table 5, 0.4 mM) is 407.0 ng/well. Moreover, in assay [2], the fold induction at 400 µM worked out at 6.1 and the “NGF L-M Cell Concentration” value was found to be 5.31 ng/well.
On the same counts, the results for `O=C(CCc1ccc(O)c(O)c1)N1CCOCC1` [Compound 99, N-[3-(3,4-Dihydroxyphenyl)propionyl]morpholine] are 5.2, 165.4 ng/well, 4.8 and 4.18 ng/well.
